Experiment [1] in a line: IGROV1 ovarian cancer cell cytotoxicity, dose response, PAX8 inhibitor project, plate reader, dry powder samples (AID 743043). The following applies: IGROV-1. The format is functional, cell-based.
For another experiment, the target named is Paired box protein Pax-8 (Homo sapiens, UniProt Q06710). In words: inhibitors of PAX8-driven TPO luciferase reporter, dose response, RMG-I cells, cherry-pick (AID 687027).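 Note: luciferase reporter driven by Pax8 target thyroperoxidase promoter measured by SteadyGlo luminescence.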 It is filed as functional, cell-based.
Paired box protein Pax-8, sequence (Q06710 whole entry): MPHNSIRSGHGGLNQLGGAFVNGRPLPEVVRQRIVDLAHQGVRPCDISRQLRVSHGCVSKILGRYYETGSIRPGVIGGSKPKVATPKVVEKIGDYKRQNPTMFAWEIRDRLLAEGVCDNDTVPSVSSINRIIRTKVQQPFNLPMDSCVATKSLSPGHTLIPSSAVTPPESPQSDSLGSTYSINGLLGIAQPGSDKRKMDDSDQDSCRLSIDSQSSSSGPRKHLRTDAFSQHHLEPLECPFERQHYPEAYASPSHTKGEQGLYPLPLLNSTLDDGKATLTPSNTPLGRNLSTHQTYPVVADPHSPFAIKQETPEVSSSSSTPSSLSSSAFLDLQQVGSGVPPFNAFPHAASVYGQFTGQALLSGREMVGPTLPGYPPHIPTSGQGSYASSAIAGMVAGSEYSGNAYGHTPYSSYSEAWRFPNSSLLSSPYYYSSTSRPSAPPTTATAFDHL
Experiment [2] is described as follows: HepG2 cell cytotoxicity, dose response, cytotoxicity control, cherry-picked samples (AID 1159577). The format is functional, cell-based.
Experiment [3] is described as follows: P. falciparum Dd2 growth inhibitors, dose response, SYBR Green, cherry-picked samples (AID 1159567). The format is functional, cell-based.
Experiment [4] is described as follows: HEK293 cell cytotoxicity, dose response, cytotoxicity control, plate reader, cherry-picked samples (AID 743446). It is filed as functional, cell-based.
In experiment [5] the target is T1, Heat shock factor protein 1 (Mus musculus, UniProt P38532).
T1 sequence (P38532 whole entry): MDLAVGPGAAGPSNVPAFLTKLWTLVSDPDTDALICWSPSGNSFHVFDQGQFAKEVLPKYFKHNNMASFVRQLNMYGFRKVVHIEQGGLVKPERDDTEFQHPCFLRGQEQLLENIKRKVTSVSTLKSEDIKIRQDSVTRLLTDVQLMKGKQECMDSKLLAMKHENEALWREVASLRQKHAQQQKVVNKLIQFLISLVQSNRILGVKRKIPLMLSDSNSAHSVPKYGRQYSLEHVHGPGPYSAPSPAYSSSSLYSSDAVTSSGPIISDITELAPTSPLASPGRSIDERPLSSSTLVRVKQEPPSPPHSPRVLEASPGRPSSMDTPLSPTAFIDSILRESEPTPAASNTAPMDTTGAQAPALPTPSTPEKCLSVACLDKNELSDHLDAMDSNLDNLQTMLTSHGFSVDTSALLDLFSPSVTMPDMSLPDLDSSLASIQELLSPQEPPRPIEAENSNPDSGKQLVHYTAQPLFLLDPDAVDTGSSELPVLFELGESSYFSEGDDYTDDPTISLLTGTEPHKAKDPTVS
In words: inhibition of MG132-induced HSE-luciferase signal, confirmation, cell-based, NIH3T3, luminescence, dose retest (AID 2382).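 Note: NIH3T3 fibroblasts with HSF1-driven luciferase reporter stressed by proteasome inhibitor MG132; luminescence from HSF1-driven luciferase expression after 8 hours of MG132 stress.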 The format is functional.

The nature of experiment [6]: LGR2 antagonists, dose response, cell-based, HEK293, CRE-luciferase reporter, cherry pick, set 2 (AID 743343).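 Note: transfected cells were stimulated with diluted bursicon conditioned medium after compound addition.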 The format is functional. A general note: In a reporter assay the amount or activity of a reporter protein is the signal.
Experiment [7] in a line: A549 cell cytotoxicity, dose response, cytotoxicity control, plate reader, cherry-pick, antagonist series (AID 743412). It is filed as functional, cell-based.
Experiment [8] in a line: MC4R antagonists, dose response, counter-screen for LGR2 antagonist project, cell-based, plate reader, cherry pick (AID 743444).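 Note: transfected HEK 293 cells stimulated with alpha-MSH peptide; potency of inhibitors of the alpha-MSH evoked signal.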 The format is functional.
The nature of experiment [9]: HepG2 cell cytotoxicity, dose response, cytotoxicity control, plate reader, cherry-pick, antagonist series (AID 743416). The format is functional, cell-based.
Experiment [10] has as its target T2, Low molecular weight phosphotyrosine protein phosphatase (Homo sapiens, UniProt P24666).
T2 sequence (P24666 whole entry): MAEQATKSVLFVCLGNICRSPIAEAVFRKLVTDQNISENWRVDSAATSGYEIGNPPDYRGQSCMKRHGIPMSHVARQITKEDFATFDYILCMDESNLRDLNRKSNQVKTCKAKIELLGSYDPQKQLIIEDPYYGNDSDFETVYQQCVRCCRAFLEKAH
The format is functional. The following applies: read-out: IC50_Mean.

In experiment [11] the target is Tyrosine-protein phosphatase non-receptor type 11 (Homo sapiens, UniProt Q06124). The experiment can be described thus: SHP2 phosphatase inhibition, dose response, selectivity assay for STEP inhibitor project, biochemical (AID 602367). It is filed as functional. The following applies: read-out: IC50_Mean.
Tyrosine-protein phosphatase non-receptor type 11, sequence (Q06124 whole entry): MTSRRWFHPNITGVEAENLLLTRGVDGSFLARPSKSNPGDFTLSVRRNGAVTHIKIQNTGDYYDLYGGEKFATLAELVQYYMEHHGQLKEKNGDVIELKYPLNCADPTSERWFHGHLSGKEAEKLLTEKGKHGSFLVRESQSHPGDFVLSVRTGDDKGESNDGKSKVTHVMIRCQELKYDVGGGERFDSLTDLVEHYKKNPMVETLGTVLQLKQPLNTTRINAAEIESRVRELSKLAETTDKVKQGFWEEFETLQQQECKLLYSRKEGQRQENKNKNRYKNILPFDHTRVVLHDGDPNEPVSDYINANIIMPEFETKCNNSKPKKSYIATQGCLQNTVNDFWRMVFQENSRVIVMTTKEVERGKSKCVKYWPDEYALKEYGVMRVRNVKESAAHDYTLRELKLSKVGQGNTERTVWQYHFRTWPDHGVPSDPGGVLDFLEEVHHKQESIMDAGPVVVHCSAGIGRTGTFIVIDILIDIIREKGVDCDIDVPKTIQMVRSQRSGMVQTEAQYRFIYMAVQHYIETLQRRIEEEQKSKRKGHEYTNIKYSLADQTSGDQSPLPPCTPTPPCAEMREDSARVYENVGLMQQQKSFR
In experiment [12] the target is T3, Tyrosine-protein phosphatase non-receptor type 22 (Homo sapiens, UniProt Q9Y2R2).
T3 sequence (Q9Y2R2 whole entry): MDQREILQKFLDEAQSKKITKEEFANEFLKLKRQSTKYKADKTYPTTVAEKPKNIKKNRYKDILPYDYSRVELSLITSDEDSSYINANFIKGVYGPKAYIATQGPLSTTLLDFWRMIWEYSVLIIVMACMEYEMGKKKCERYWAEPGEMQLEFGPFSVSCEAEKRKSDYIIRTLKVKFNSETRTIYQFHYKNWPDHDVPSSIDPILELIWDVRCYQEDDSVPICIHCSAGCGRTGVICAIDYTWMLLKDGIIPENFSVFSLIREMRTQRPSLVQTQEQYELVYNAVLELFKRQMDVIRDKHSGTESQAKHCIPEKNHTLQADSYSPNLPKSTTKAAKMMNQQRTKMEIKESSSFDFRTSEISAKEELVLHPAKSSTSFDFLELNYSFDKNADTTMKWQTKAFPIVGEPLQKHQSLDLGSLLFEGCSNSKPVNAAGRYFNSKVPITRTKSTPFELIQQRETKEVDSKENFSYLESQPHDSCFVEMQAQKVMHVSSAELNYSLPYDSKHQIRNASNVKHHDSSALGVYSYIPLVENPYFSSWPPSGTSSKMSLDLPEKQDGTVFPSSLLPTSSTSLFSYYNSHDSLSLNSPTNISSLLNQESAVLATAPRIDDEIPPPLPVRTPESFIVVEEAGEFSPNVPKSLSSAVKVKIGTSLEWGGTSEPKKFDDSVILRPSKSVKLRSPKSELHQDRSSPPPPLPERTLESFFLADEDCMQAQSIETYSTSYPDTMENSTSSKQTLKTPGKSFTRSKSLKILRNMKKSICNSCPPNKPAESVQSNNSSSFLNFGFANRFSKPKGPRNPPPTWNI
In words: PTPN22 phosphatase inhibition, dose response, selectivity assay for STEP inhibitor project, biochemical (AID 624241). The format is functional.

Experiment [13] concerns the target T2, Low molecular weight phosphotyrosine protein phosphatase. The format is functional. The note with it: read-out: IC50_Mean. The source holds these as a separate data set.
Experiment [14] deals with T4, Carboxy-terminal domain RNA polymerase II polypeptide A small phosphatase 1 (Homo sapiens, UniProt Q9GZU7).
T4 sequence (Q9GZU7 whole entry): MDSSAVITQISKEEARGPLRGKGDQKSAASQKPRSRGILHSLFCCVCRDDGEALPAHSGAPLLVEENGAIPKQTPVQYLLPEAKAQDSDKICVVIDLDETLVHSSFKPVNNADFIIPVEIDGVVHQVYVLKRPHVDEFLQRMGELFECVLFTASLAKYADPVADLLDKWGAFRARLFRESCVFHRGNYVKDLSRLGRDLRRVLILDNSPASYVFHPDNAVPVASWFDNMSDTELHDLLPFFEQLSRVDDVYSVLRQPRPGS
In words: inhibitors of CTDSP1, concentration-response testing, biochemical assay, absorbance-based, actives from ultra-high-throughput screening (AID 540297). It is filed as functional.

The target in experiment [15] is T5, Small ubiquitin-related modifier 1 (Homo sapiens, UniProt P63165). The experiment can be described thus: inhibitors of SUMO1 peptide binding, dose response, biochemical, fluorescence polarization, uHTS hits (AID 624382). The format is functional. The following applies: read-out: IC50_Mean. On the technique in general: In fluorescence polarisation assays a small probe gives low polarisation when free and higher when bound to something large.
T5 sequence (P63165 whole entry): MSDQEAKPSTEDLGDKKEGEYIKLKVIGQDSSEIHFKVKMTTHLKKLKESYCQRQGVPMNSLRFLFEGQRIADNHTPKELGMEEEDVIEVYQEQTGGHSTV

Experiment [16] addresses Tyrosine-protein phosphatase non-receptor type 5 (Homo sapiens, UniProt P54829). The experiment can be described thus: STEP phosphatase inhibitors, confirmation, biochemical, fluorescence intensity, uHTS hits (AID 602372). The format is functional. The note with it: read-out: IC50_Mean.
Experiment [17] addresses T5, Small ubiquitin-related modifier 1. The experiment can be described thus: inhibitors of SUMO1 partner interactions, dose response, biochemical, FRET (AID 624383). The format is functional. The following applies: read-out: IC50_Mean.
In experiment [18] the target is Dual specificity protein phosphatase 3 (Homo sapiens, UniProt P51452). In words: VHR phosphatase inhibition, dose response, selectivity assay for STEP inhibitor project, biochemical (AID 602374). It is filed as functional. The note with it: read-out: IC50_Mean.
Dual specificity protein phosphatase 3, sequence (P51452 whole entry): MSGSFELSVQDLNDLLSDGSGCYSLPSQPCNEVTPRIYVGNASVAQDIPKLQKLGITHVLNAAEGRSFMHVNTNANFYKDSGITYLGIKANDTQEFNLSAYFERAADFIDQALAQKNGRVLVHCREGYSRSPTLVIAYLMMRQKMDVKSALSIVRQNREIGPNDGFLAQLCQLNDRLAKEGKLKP
Experiment [19] in a line: control 3'UTR Renilla luciferase suppression, dose response, counter-screen for Shn3 inhibitor project, cell-based, Clone20-Shn3RL, cherry-picked (AID 624133). It is filed as functional. (The purpose of a counterscreen is to sort out artefacts and off-target activity.)
In a further experiment the target is Protein Wnt-3a (Mus musculus, UniProt P27467). In words: Wnt3a-driven reporter signaling inhibition, dose response, selectivity assay for Gli-SUFU antagonist project, Wnt-LIGHT cells, luminescence (AID 651570).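 Note: Wnt-LIGHT reporter cells stimulated with conditioned medium from Wnt3a-producing cells.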 It is filed as functional. The following applies: read-out: IC50_Mean.
Protein Wnt-3a, sequence (P27467 whole entry): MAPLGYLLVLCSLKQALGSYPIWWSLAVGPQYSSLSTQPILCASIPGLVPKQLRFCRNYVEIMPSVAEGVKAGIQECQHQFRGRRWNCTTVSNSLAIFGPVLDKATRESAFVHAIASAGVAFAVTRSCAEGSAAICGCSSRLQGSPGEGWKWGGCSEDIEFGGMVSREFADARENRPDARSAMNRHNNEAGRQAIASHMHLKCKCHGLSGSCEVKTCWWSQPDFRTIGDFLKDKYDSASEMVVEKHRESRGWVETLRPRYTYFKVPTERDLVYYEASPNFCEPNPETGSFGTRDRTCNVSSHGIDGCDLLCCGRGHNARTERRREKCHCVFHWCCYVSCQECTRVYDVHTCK
Experiment [20] in a line: Shn3 3'UTR reporter inhibitors, dose response, cell-based, Clone20 osteoblasts, firefly luciferase, cherry-picked (AID 624132).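 Note: firefly luciferase luminescence from reporter carrying the Shn3 3'UTR in osteoblasts.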 It is filed as functional.
Experiment [21] concerns the target T6, Probable nicotinate-nucleotide adenylyltransferase (Staphylococcus aureus (strain N315), UniProt P65502). The format is functional, Staphylococcus aureus subsp. aureus N315.
For experiment [22], the target named is T6, Probable nicotinate-nucleotide adenylyltransferase. The format is functional, Staphylococcus aureus subsp. aureus N315. The note with it: read-out: IC50_Mean.
In experiment [23] the target is T7, Corticotropin-releasing factor receptor 2/Corticotropin-releasing factor-binding protein (Homo sapiens, UniProt P24387+Q13324).
T7 sequence (Q13324 whole entry): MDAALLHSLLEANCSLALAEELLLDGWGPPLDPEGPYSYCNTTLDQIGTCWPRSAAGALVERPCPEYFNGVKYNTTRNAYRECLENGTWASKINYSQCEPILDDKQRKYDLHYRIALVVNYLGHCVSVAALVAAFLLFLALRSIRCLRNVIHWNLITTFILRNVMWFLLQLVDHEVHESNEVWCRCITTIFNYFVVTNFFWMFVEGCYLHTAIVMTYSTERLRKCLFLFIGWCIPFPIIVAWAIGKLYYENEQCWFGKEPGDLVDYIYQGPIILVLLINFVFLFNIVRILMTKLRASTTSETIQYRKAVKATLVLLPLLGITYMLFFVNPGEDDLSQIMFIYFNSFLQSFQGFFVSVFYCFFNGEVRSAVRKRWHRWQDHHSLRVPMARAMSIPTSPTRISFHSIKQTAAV
T7 sequence (P24387 whole entry): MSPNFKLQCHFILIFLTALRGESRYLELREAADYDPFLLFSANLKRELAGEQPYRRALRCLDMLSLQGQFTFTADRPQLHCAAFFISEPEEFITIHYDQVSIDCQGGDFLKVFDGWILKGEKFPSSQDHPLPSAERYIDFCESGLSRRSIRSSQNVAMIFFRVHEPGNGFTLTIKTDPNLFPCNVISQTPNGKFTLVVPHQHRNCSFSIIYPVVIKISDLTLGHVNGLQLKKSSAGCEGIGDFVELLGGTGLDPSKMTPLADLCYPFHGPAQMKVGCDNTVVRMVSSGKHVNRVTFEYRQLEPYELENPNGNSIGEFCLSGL
In words: activators of CRF receptor 2 with binding protein – uHTS hits, confirmation (AID 602473). It is filed as functional. The note with it: read-out: EC50_Mean.

Experiment [24] can be described thus: CRF-BP/CRF-R2 complex antagonists, dose response, cell-based, uHTS hits, 384-well (AID 651639). It is filed as functional, Homo sapiens. The following applies: read-out: IC50_Mean.
The target of experiment [25] is T7, Corticotropin-releasing factor receptor 2/Corticotropin-releasing factor-binding protein. In words: Dose Response confirmation of uHTS hits for small molecule antagonists of the CRF-binding protein and CRF-R2 receptor complex. The format is functional. The following applies: read-out: IC50_Mean.

The source made the active and inactive calls.

T6 sequence (P65502 whole entry): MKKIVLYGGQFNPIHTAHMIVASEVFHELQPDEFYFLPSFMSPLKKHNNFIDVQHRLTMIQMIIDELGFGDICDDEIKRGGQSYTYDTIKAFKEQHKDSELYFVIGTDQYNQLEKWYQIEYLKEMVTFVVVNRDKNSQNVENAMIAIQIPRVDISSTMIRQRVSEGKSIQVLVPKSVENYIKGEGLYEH
Tyrosine-protein phosphatase non-receptor type 5, sequence (P54829 whole entry): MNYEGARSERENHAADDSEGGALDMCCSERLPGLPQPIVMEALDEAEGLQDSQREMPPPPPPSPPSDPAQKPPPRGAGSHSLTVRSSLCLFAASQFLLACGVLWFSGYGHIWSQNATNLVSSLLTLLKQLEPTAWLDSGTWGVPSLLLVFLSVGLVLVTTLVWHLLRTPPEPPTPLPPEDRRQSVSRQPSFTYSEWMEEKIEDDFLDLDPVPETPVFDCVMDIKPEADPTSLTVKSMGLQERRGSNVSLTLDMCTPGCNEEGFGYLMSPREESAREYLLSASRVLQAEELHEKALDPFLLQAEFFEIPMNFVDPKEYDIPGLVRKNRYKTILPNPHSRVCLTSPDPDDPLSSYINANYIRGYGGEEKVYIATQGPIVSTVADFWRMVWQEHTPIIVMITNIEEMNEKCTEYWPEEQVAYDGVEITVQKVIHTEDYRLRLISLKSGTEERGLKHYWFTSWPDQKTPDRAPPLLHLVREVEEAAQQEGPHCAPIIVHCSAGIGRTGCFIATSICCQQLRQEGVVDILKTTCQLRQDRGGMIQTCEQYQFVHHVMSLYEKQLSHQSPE

The AC50 is the midpoint of the concentration-response curve, whichever way the signal moves. As to `C[C@@H]1CN([C@@H](C)CO)C(=O)Cc2cc(NC(=O)Nc3ccccc3)ccc2O[C@H]1CN(C)Cc1ccc(Oc2ccccc2)cc1`, the AC50 in experiment [1] was 55.6 µM (active); on Paired box protein Pax-8 it was 9.84 µM (active); in experiment [2], 12.9 µM (active); in experiment [3], 1.05 µM (active).
For the molecule `O=C(O)c1ccc2nc(-c3ccccc3)sc2c1`, the AC50 is > 52 µM (inactive) in experiment [4]; 3.7 µM (active) in experiment [6]; > 52 µM (inactive) in [7]; 3.35 µM (active) in [8]; > 52 µM (inactive) in [9]. The EC50 in [5] was 5.85 µM (active).
As to `Cc1cc(C(=O)N/N=C/c2ccc(-c3ccc([N+](=O)[O-])cc3Cl)o2)[nH]n1`, the IC50 in experiment [10] was > 80 µM (inactive); in experiment [11] it was 3.42 µM (active); in [12] it was > 100 µM (inactive); in experiment [13], 19 µM (active); in experiment [14] it was 7.05 µM (active); in experiment [15], > 66.6 µM (inactive). Further, the IC50 in experiment [16] was 6.83 µM (active); in experiment [17] it was 13.8 µM (active); in experiment [18], 1.36 µM (active).
On to `C=CCOc1nc2c(c(=O)n(C)c(=O)n2C)n1Cc1ccc(Cl)cc1`, for which the AC50 in experiment [19] was 2.02 µM (active); in [20], 1.03 µM (active). The IC50 on Protein Wnt-3a is 1.88 µM (active).
In the case of `NC(CSC1(c2ccc(Cl)cc2)c2ccccc2-c2ccccc21)C(=O)O` (configuration not stated), the figures for the IC50 in experiment [21] and in [22] were 11.7 µM (active) and 34.2 µM (active), respectively.
For the molecule `O=C(NC(=S)Nc1c(Cl)ccc2nsnc12)c1ccccc1F`, the EC50 in [23] was > 53 µM (inactive). The IC50 in experiment [24] was > 20 µM (inactive); in experiment [25] it was 2.88 µM (active).

For the origin of these results see ChEMBL document CHEMBL1201862, “PubChem BioAssay data set” (2004).
